Experimental data: patent US20080221039A1, “Kinin Antagonists For Treating Bladder Dysfunction” (priority 2005, published 2008)
“Also recorded” adds a separate entry of the source. Square brackets hold non-standard residues; d marks the D form. Peptide text beside a SMILES is read from it. d2Nal = N[C@H](Cc1ccc2ccccc2c1)C(=O)O

Experiments:
[1] = test system: rat model of acetic acid induced bladder irritation; assay: Rat model of acetic acid induced bladder irritation (Example 2); assay type: in vivo; conditions: for intercontraction interval (ICI): Example 2, FIG. 1, i.v. after acetic acid, Aspirin 10 mg/kg; for intercontraction interval (ICI) / bladder capacity: Icatibant 0.2, 1 and 5 mg/kg, Oxybutynin 1 mg/kg, R-715 1 mg/kg; for bladder capacity: Example 2, FIG. 2, i.v. after acetic acid, aspirin 10 mg/kg; for micturition pressure: Example 2, FIG. 3, after start of acetic acid infusion; for bladder capacity, pre-treatment: Example 2, pre-treatment prior to acetic acid application
Procedure: Groups of 5 female Wistar rats weighing 250 to 300 g anesthetized with urethane 1.2 g/kg i.p. in 5 ml/kg were used. A polyethylene catheter (PE50) was implanted into the bladder for saline or acetic acid infusion through a 3 way stopcock to which a pressure transducer is connected for measurements of bladder pressure (mm Hg). Saline at 37° C. was infused into the bladder at a constant rate until cystometrography stabilized in 60 minutes. Subsequently, 0.2% acetic acid was infused into the urinary bladder. […] The following parameters were measured continuously during baseline and for up to 1 hour post-dosing: bladder capacity (μl), intercontraction interval (ICI, in minutes, time between two voiding cycles), micturition pressure (mm Hg), micturition volume (ml, derived from the weight of excreted urine measured by a balance placed below the rat) and blood pressure (mm Hg). [table] Paired Student's test was applied for comparison between the time before (baseline) and after test substance or with vehicle treatment. To signify differences between test substance and vehicle control groups, Dunnett's test or unpair Student t test was used. Differences are considered significant at P<0.05 level.

[2] = test system: rat model of acetic acid induced bladder irritation; assay: Rat model of acetic acid induced bladder irritation (Example 1); assay type: in vivo
Procedure: Groups of 5 female Wistar rats weighing 250 to 300 g anesthetized with urethane 1.2 g/kg i.p. in 5 ml/kg were used. A polyethylene catheter (PE50) was implanted into the bladder for saline or acetic acid infusion through a 3 way stopcock to which a pressure transducer is connected for measurements of bladder pressure (mm Hg). Saline at 37° C. was infused into the bladder at a constant rate until cystometrography becomes stable. Thereafter, instillation of 0.2% acetic acid into the urinary bladder was initiated. […] The following parameters were measured continuously for 1 hour after treatment was started: intercontraction interval (ICI, minutes, defined as the time between two voiding cycles), threshold pressure (mmHg), bladder capacity (ml), micturition volume (ml), and micturition pressure (mmHg). Micturition volume is derived from the weight of excreted urine measured by a balance placed below the rat.
Paired Student's test was applied for comparison between the time before and after test substance or with vehicle treatment. To signify differences between test substance and vehicle control group, Dunnett's test was used. Differences are considered significant at P<0.05.

guinea pig B2 receptors = target: T1, guinea pig B2 receptors (Cavia porcellus, UniProt O70526); conditions: human INT407 cells; cited from earlier work
T1 construct: host or cells: human INT407 cells
T1 sequence (O70526 1-372): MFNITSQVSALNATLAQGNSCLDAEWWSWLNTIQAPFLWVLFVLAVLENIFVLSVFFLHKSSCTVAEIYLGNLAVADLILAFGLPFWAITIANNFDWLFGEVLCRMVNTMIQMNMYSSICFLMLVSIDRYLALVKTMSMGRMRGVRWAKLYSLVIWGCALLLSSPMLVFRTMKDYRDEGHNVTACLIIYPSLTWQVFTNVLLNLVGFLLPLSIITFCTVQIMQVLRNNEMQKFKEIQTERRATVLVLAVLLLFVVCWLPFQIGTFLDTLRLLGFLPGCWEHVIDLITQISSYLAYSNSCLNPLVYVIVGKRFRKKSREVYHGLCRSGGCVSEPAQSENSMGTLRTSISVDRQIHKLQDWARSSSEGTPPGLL

| Structure (SMILES) | intercontraction interval (ICI) [1] | bladder capacity [1] | micturition pressure [1] | bladder capacity, pre-treatment [1] | further results |
| --- | --- | --- | --- | --- | --- |
| CC[C@H](C)[C@H](NC(=O)[C@@H](Cc1ccc2ccccc2c1)NC(=O)[C@H](CO)NC(=O)[C@H](Cc1ccccc1)NC(=O)CNC(=O)[C@@H]1CCCN1C(=O)[C@@H]1CCCN1C(=O)[C@H](CCCNC(=N)N)NC(=O)[C@H](CCCCN)NC(C)=O)C(=O)O [R-715, H-Ac-Lys-Arg-Pro-Pro-Gly-Phe-Ser-D-Nal-Ile-OH] (Ac-KRPPGFS[d2Nal]I-OH) | becomes effective over the study time as well but positive effects on ICI are delayed; also recorded: doubling | increases the bladder capacity until reaching the baseline levels; also recorded: tripling | – | – | – |
| CC(=O)Oc1ccccc1C(=O)O [Aspirin] | increases | increases the bladder capacity until reaching the baseline levels | – | – | – |
| CC[C@H](C)[C@H](NC(=O)[C@@H](Cc1ccc2ccccc2c1)NC(=O)[C@H](CO)NC(=O)[C@H](Cc1ccccc1)NC(=O)CNC(=O)[C@@H]1CCCN1C(=O)[C@@H]1CCCN1C(=O)[C@H](CCCN=C(N)N)NC(=O)[C@H](CCCCN)NC(C)=O)C(=O)O [R-715, H-Ac-Lys-Arg-Pro-Pro-Gly-Phe-Ser-D-Nal-Ile-OH] (Ac-KRPPGFS[d2Nal]I-OH) | – | – | without any change | – | – |
| COc1cc(CNC(=O)CCCC/C=C/C(C)C)ccc1O [Capsaicin] | – | – | – | completely blocks the acetic acid induced decrease of bladder capacity | intercontraction interval (ICI), Capsaicin pre-treatment ([1]; Example 2, 25 mg/kg and 50 mg/kg s.c., 4 days prior to experiment): inhibition of the acetic acid—triggered ICI—decrease |
| NC(N)=NCCC[C@@H](N)C(=O)N[C@@H](CCCN=C(N)N)C(=O)N1CCC[C@H]1C(=O)N1C[C@H](O)C[C@H]1C(=O)NCC(=O)N[C@@H](Cc1cccs1)C(=O)N[C@@H](CO)C(=O)N1Cc2ccccc2C[C@@H]1C(=O)N1[C@H](C(=O)N[C@@H](CCCN=C(N)N)C(=O)O)C[C@@H]2CCCC[C@@H]21 [Icatibant, H-D-Arg-Arg-Pro-Hyp-Gly-Thi-Ser-D-Tic-Oic-Arg-OH] | increases; also recorded: doubling | increases the bladder capacity until reaching the baseline levels; also recorded: tripling | without any change | completely blocks the acetic acid induced decrease of bladder capacity | intercontraction interval (ICI), pre-treatment ([1]; Example 2, 1 mg/kg i.v. 30 minutes prior to intravesical acetic acid infusion): strongly inhibits decrease of ICI; lowest dose at which maximal effects on ICI were reached ([1]; Example 2, i.v. after acetic acid): 0.2 mg/kg; acetic acid induced bladder dysfunction, pre-treatment ([1]; Example 2 summary, pre-treatment before acetic acid): complete inhibition; intercontraction interval (ICI) ([2]; Example 1, FIG. 1, in comparison to the vehicle group, i.v. after start of acetic acid infusion): dose-dependently increases; bladder capacity ([2]; Example 1, FIG. 2, in comparison to the vehicle group, i.v. after start of acetic acid infusion): dose-dependently increases; micturition pressure ([2]; Example 1, FIG. 3, i.v. after start of acetic acid infusion): no decrease; bladder capacity ([2]; Example 1 summary, 1 mg/kg): doubling; interval between two micturition contractions ([2]; Example 1 summary, 1 mg/kg): doubling; micturition pressure ([2]; Example 1 summary, 1 mg/kg): without any change; reversal of acetic acid induced detrusor instabilities ([2]; rat, 1 mg/kg i.v.): able to reverse; inhibition of BK-mediated inositol phosphate generation (guinea pig B2 receptors): efficiently inhibited |
| CCN(CC)CC#CCOC(=O)C(O)(c1ccccc1)C1CCCCC1 (stereo not drawn) [Oxybutynin, 4-diethylaminio-2-butynyl phenylcyclohexyglycolate] | if any, only slight positive effects | no significant effects | – | – | – |
